Test results taken from patent publication US6503882B2, “Treatment of HIV” (Trustees of Tufts College, priority 1997, dated 2003).

Key:
[1] = test system: PBMC from HIV-infected patients; test: Proliferation of PBMC from HIV-infected individuals in vitro, 3H thymidine incorporation; assay type: cell-based, human; conditions: for stimulation of proliferation (incorporation of 3H thymidine, cpm): very low doses, FIG. 1
Experimental: Peripheral blood mononuclear cells (PBMC) were obtained by standard methods from HIV-infected individuals, and from uninfected individuals. Varying dosages of KBP or VBP were contacted with the PBMC in vitro, and stimulation of proliferation was measured by incorporation of ^3H thymidine (cpm).

[2] = relatively low doses (10^−7M), FIG. 2

Row | Compound | proliferation of PBMC of HIV-infected patients ([1]; higher doses (10^−4M), FIG. 2) | proliferation of PBMC of HIV-infected patients [1, 2] | stimulation of proliferation (incorporation of 3H thymidine, cpm) [1] | stimulation of PBMC of HIV-infected patients ([1]; concentrations of 10^−6, FIG. 2) | cytotoxicity (T-cells) | cytotoxicity to T-cells (T-cells) | toxicity observed in vitro (T-cells)
1 | NCCCC[C@H](N)C(=O)N1CCC[C@H]1B(O)O [Lys-boroPro] | did not have this effect | caused proliferation | stimulated proliferation |  |  |  | 
2 | CC(C)[C@H](N)C(=O)N1CCC[C@H]1B(O)O [Val-boroPro] | did not have this effect | caused proliferation | stimulated proliferation | there was stimulation | approximately 50% | highly cytotoxic | greater than 80%
